Data as given in patent US20140058103A1, “Inhibitors of PI3K-Delta and Methods of Their Use and Manufacture” (Exelixis, Inc., priority 2010, published 2014).

Target: PI3K delta (Homo sapiens, UniProt O00329)
Experiment: Luciferase-coupled chemiluminescence kinase assay (ATP consumption, KinaseGlo)
Type: biochemical
How it was run: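 ATP consumption measured by KinaseGlo luciferase chemiluminescence after a 2 h reaction at ambient temperature, with ATP at or below the kinase KM. Ten inhibitor concentrations per curve; IC50 from four-parameter nonlinear regression.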

Sequence of PI3K delta (O00329 whole entry): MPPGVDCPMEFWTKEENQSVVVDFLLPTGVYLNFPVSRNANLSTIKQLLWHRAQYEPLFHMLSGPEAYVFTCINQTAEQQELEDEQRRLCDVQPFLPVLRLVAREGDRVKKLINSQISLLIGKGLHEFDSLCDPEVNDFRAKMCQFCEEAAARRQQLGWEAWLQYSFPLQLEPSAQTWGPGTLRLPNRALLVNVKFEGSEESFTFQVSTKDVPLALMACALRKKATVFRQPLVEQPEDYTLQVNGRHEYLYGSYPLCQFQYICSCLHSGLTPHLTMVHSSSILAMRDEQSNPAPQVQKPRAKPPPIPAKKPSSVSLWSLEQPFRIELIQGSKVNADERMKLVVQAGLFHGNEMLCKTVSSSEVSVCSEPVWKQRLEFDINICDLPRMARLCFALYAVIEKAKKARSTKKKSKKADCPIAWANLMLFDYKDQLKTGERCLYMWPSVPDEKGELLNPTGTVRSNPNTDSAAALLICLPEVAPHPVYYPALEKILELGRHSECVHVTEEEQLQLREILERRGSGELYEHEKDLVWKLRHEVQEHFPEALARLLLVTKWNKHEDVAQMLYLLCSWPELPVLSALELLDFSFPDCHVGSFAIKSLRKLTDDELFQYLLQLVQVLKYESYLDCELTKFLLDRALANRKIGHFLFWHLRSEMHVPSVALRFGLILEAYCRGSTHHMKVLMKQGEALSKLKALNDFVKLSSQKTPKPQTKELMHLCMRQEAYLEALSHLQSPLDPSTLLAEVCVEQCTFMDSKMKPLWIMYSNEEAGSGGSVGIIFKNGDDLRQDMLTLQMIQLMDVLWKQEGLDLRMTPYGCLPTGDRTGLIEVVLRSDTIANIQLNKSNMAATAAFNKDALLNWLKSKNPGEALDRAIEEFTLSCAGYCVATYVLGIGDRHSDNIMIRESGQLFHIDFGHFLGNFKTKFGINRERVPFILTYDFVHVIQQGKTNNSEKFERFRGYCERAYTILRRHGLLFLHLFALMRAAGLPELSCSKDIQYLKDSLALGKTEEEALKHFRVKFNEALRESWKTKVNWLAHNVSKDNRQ
Sequence of PI3K delta (P27986 whole entry partner): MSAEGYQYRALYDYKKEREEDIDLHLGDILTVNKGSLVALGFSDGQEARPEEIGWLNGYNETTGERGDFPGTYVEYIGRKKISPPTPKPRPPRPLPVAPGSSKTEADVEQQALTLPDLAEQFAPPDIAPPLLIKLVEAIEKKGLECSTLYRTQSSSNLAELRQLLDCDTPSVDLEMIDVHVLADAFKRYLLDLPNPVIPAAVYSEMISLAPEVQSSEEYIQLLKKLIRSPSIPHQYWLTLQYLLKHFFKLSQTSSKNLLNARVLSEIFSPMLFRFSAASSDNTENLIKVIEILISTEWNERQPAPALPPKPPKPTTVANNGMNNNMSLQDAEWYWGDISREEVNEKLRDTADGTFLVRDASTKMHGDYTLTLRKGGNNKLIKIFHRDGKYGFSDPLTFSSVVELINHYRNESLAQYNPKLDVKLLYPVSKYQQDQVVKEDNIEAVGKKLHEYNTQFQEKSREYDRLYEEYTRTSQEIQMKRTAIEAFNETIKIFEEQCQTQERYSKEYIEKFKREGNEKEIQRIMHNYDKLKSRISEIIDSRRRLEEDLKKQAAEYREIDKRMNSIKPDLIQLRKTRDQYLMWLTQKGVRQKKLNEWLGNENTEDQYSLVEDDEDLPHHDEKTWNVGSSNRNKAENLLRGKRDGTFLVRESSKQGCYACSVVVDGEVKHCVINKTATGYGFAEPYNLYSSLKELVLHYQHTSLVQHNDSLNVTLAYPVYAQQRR

Question: For `CCn1cc(-c2nc3c(N4CCC5(CC4)C(=O)Nc4ccccc45)ncnc3n2C)cn1` [Compound 237, 1′-[8-(1-Ethyl-1H-pyrazol-4-yl)-9-methyl-9H-purin-6-yl]spiro[indole-3,4′-piperidin]-2(1H)-one], which IC50 is on record?
Answer: < 50 nM

Question: How did the IC50 turn out when `Cn1c(-c2cn[nH]c2)nc2c(N3CCC4(CC3)C(=O)Nc3ccccc34)ncnc21` [Compound 238, 1′-[9-methyl-8-(1H-pyrazol-4-yl)-9H-purin-6-yl]spiro[indole-3,4′-piperidin]-2(1H)-one] was run?
Answer: < 50 nM

Question: `Cn1cc(-c2nc3c(N4CCC5(CC4)C(=O)Nc4ccccc45)ncnc3n2C)cn1` [Compound 239, 1′-[9-methyl-8-(1-methyl-1H-pyrazol-4-yl)-9H-purin-6-yl]spiro[indole-3,4′-piperidin]-2(1H)-one] was tested. Which IC50 did it give?
Answer: < 50 nM

Question: How did the IC50 turn out when `Cn1c(C(=O)NCC2CC2)nc2c(N3CCC(n4c(=O)[nH]c5ncccc54)CC3)ncnc21` [Compound 240, N-(cyclopropylmethyl)-9-methyl-6-[4-(2-oxo-2,3-dihydro-1H-imidazo[4,5-b]pyridin-1-yl)piperidin-1-yl]-9H-purine-8-carboxamide] was run?
Answer: 50 to 250 nM

Question: Which IC50 does the source give for `Cc1c(-c2nc3c(N4CCC(n5c(=O)[nH]c6ccccc65)CC4)ncnc3n2C)cnn1C` [Compound 241, 1-{1-[8-(1,5-dimethyl-1H-pyrazol-4-yl)-9-methyl-9H-purin-6-yl]piperidin-4-yl}-1,3-dihydro-2H-benzimidazol-2-one] here?
Answer: < 50 nM

Question: For `Cc1[nH]ncc1-c1nc2c(N3CCC(n4c(=O)[nH]c5ccccc54)CC3)ncnc2n1C` [Compound 242, 1-{1-[9-methyl-8-(5-methyl-1H-pyrazol-4-yl)-9H-purin-6-yl]piperidin-4-yl}-1,3-dihydro-2H-benzimidazol-2-one], which IC50 is on record?
Answer: < 50 nM

Question: Which IC50 does the source give for `CCn1c(-c2cnn(C)c2)nc2c(N3CCC(n4c(=O)[nH]c5ccccc54)CC3)ncnc21` [Compound 243, 1-{1-[9-ethyl-8-(1-methyl-1H-pyrazol-4-yl)-9H-purin-6-yl]piperidin-4-yl}-1,3-dihydro-2H-benzimidazol-2-one] here?
Answer: < 50 nM

Question: How did the IC50 turn out when `CCn1cc(-c2nc3c(N4CCC(n5c(=O)[nH]c6ccccc65)CC4)ncnc3n2CC)cn1` [Compound 244, 1-{1-[9-ethyl-8-(1-ethyl-1H-pyrazol-4-yl)-9H-purin-6-yl]piperidin-4-yl}-1,3-dihydro-2H-benzimidazol-2-one] was run?
Answer: < 50 nM

Question: How did the IC50 turn out when `CCn1c(-c2cnn(C)c2)nc2c(N3CCC4(CC3)C(=O)Nc3ccccc34)ncnc21` [Compound 245, 1′-[9-ethyl-8-(1-methyl-1H-pyrazol-4-yl)-9H-purin-6-yl]spiro[indole-3,4′-piperidin]-2(1H)-one] was run?
Answer: < 50 nM

Question: How did the IC50 turn out when `Cc1c(-c2nc3c(N4CCC5(CC4)C(=O)Nc4ccccc45)ncnc3n2C)cnn1C` [Compound 246, 1′-[8-(1,5-dimethyl-1H-pyrazol-4-yl)-9-methyl-9H-purin-6-yl]spiro[indole-3,4′-piperidin]-2(1H)-one] was run?
Answer: < 50 nM

Question: How did the IC50 turn out when `Cc1[nH]ncc1-c1nc2c(N3CCC4(CC3)C(=O)Nc3ccccc34)ncnc2n1C` [Compound 247, 1′-[9-methyl-8-(5-methyl-1H-pyrazol-4-yl)-9H-purin-6-yl]spiro[indole-3,4′-piperidin]-2(1H)-one] was run?
Answer: < 50 nM

Question: How did the IC50 turn out when `Cn1c(C(=O)NCC2CC2)nc2c(N3CCC(N4C(=O)NCc5ccccc54)CC3)ncnc21` [Compound 248, N-(cyclopropylmethyl)-9-methyl-6-[4-(2-oxo-3,4-dihydroquinazolin-1(2H)-yl)piperidin-1-yl]-9H-purine-8-carboxamide] was run?
Answer: 250 to 500 nM

Question: `Cn1c(C(=O)NCC2CC2)nc2c(N3CCC4(CC3)Nc3ccccc3NC4=O)ncnc21` [Compound 249, N-(cyclopropylmethyl)-9-methyl-6-(3′-oxo-3′,4′-dihydro-1H,1′H-spiro[piperidine-4,2′-quinoxalin]-1-yl)-9H-purine-8-carboxamide] was tested. Which IC50 did it give?
Answer: 500 to 1500 nM

Question: For `CCn1cc(-c2nc3c(N4CCC5(CC4)C(=O)Nc4ccccc45)ncnc3n2CC)cn1` [Compound 250, 1′-[9-ethyl-8-(1-ethyl-1H-pyrazol-4-yl)-9H-purin-6-yl]spiro[indole-3,4′-piperidin]-2(1H)-one], which IC50 is on record?
Answer: < 50 nM

Question: How did the IC50 turn out when `CCCn1cc(-c2nc3c(N4CCC5(CC4)C(=O)Nc4ccccc45)ncnc3n2CC)cn1` [Compound 251, 1′-[9-ethyl-8-(1-propyl-1H-pyrazol-4-yl)-9H-purin-6-yl]spiro[indole-3,4′-piperidin]-2(1H)-one] was run?
Answer: < 50 nM

Question: `CCn1c(-c2cn[nH]c2)nc2c(N3CCC4(CC3)C(=O)Nc3ccccc34)ncnc21` [Compound 252, 1′-[9-ethyl-8-(1H-pyrazol-4-yl)-9H-purin-6-yl]spiro[indole-3,4′-piperidin]-2(1H)-one] was tested. Which IC50 did it give?
Answer: < 50 nM

Question: Which IC50 does the source give for `Cn1c(C(=O)NCC2CC2)nc2c(N3CCCC(n4c(=O)[nH]c5ccccc54)C3)ncnc21` (stereo not shown) [Compound 256, N-(cyclopropylmethyl)-9-methyl-6-[3-(2-oxo-2,3-dihydro-1H-benzimidazol-1-yl)piperidin-1-yl]-9H-purine-8-carboxamide] here?
Answer: 250 to 500 nM

Question: With `Cn1c(-n2cnc3ccccc32)nc2c(N3CCC(n4c(=O)[nH]c5ccccc54)CC3)ncnc21` [Compound 259, 1-{1-[8-(1H-benzimidazol-1-yl)-9-methyl-9H-purin-6-yl]piperidin-4-yl}-1,3-dihydro-2H-benzimidazol-2-one] as the molecule, how does the IC50 read?
Answer: < 50 nM

Question: How did the IC50 turn out when `CCn1c(-c2cnn(C)c2C)nc2c(N3CCC(n4c(=O)[nH]c5ccccc54)CC3)ncnc21` [Compound 260, 1-{1-[8-(1,5-dimethyl-1H-pyrazol-4-yl)-9-ethyl-9H-purin-6-yl]piperidin-4-yl}-1,3-dihydro-2H-benzimidazol-2-one] was run?
Answer: < 50 nM

Question: For `CCn1c(-c2cnn(C)c2C)nc2c(N3CCC4(CC3)C(=O)Nc3ccccc34)ncnc21` [Compound 261, 1′-[8-(1,5-dimethyl-1H-pyrazol-4-yl)-9-ethyl-9H-purin-6-yl]spiro[indole-3,4′-piperidin]-2(1H)-one], which IC50 is on record?
Answer: < 50 nM

Question: How did the IC50 turn out when `Cn1c(-c2cn[nH]c2C(F)(F)F)nc2c(N3CCC(n4c(=O)[nH]c5ccccc54)CC3)ncnc21` [Compound 262, 1-(1-{9-methyl-8-[5-(trifluoromethyl)-1H-pyrazol-4-yl]-9H-purin-6-yl}piperidin-4-yl)-1,3-dihydro-2H-benzimidazol-2-one] was run?
Answer: 50 to 250 nM

Question: With `Cn1cc(-c2nc3c(N4CCC(C#N)(c5ccccc5)CC4)ncnc3n2C)cn1` [Compound 263, 1-[9-Methyl-8-(1-methyl-1H-pyrazol-4-yl)-9H-purin-6-yl]-4-phenylpiperidine-4-carbonitrile] as the molecule, how does the IC50 read?
Answer: 50 to 250 nM

Question: How did the IC50 turn out when `Cn1c(C(=O)NCC2CC2)nc2c(N3CCN(C4=NS(=O)(=O)c5ccccc54)CC3)ncnc21` [Compound 264, N-(cyclopropylmethyl)-6-[4-(1,1-dioxido-1,2-benzisothiazol-3-yl)piperazin-1-yl]-9-methyl-9H-purine-8-carboxamide] was run?
Answer: 500 to 1500 nM

Question: How did the IC50 turn out when `Cn1c(-c2ccoc2)nc2c(N3CCC(n4c(=O)[nH]c5ccccc54)CC3)ncnc21` [Compound 265, 1-[1-(8-furan-3-yl-9-methyl-9H-purin-6-yl)piperidin-4-yl]-1,3-dihydro-2H-benzimidazol-2-one] was run?
Answer: 50 to 250 nM

Question: With `Cn1c(-c2ccncc2)nc2c(N3CCC(n4c(=O)[nH]c5ccccc54)CC3)ncnc21` [Compound 266, 1-[1-(9-methyl-8-pyridin-4-yl-9H-purin-6-yl)piperidin-4-yl]-1,3-dihydro-2H-benzimidazol-2-one] as the molecule, how does the IC50 read?
Answer: 250 to 500 nM

Question: For `Cn1c(-c2ccccc2)nc2c(N3CCC(n4c(=O)[nH]c5ccccc54)CC3)ncnc21` [Compound 267, 1-[1-(9-methyl-8-phenyl-9H-purin-6-yl)piperidin-4-yl]-1,3-dihydro-2H-benzimidazol-2-one], which IC50 is on record?
Answer: 500 to 1500 nM

Question: For `Cn1c(-c2cccnc2)nc2c(N3CCC(n4c(=O)[nH]c5ccccc54)CC3)ncnc21` [Compound 268, 1-[1-(9-Methyl-8-pyridin-3-yl-9H-purin-6-yl)piperidin-4-yl]-1,3-dihydro-2H-benzimidazol-2-one], which IC50 is on record?
Answer: < 50 nM

Question: With `Cn1cc(-c2nc3c(N4CCC(n5c(=O)[nH]c6ncccc65)CC4)ncnc3n2C)cn1` [Compound 269, 1-{1-[9-methyl-8-(1-methyl-1H-pyrazol-4-yl)-9H-purin-6-yl]piperidin-4-yl}-1,3-dihydro-2H-imidazo[4,5-b]pyridin-2-one] as the molecule, how does the IC50 read?
Answer: < 50 nM

Question: With `CCn1c(C(=O)NCC2CC2)nc2c(N3CCC(n4c(=O)[nH]c5ncccc54)CC3)ncnc21` [Compound 270, N-(cyclopropylmethyl)-9-ethyl-6-[4-(2-oxo-2,3-dihydro-1H-imidazo[4,5-b]pyridin-1-yl)piperidin-1-yl]-9H-purine-8-carboxamide] as the molecule, how does the IC50 read?
Answer: < 50 nM

Question: Which IC50 does the source give for `Cn1c(-c2cncnc2)nc2c(N3CCC(n4c(=O)[nH]c5ccccc54)CC3)ncnc21` [Compound 271, 1-[1-(9-methyl-8-pyrimidin-5-yl-9H-purin-6-yl)piperidin-4-yl]-1,3-dihydro-2H-benzimidazol-2-one] here?
Answer: < 50 nM

Question: How did the IC50 turn out when `Cn1ncc(-c2nc3c(N4CCC(n5c(=O)[nH]c6ccccc65)CC4)ncnc3n2C)c1Cl` [Compound 272, 1-{1-[8-(5-chloro-1-methyl-1H-pyrazol-4-yl)-9-methyl-9H-purin-6-yl]piperidin-4-yl}-1,3-dihydro-2H-benzimidazol-2-one] was run?
Answer: < 50 nM

Question: `Cn1c(C(=O)NCC(C)(C)O)nc2c(N3CCC(n4c(=O)[nH]c5ccccc54)CC3)ncnc21` [Compound 273, N-(2-hydroxy-2-methylpropyl)-9-methyl-6-[4-(2-oxo-2,3-dihydro-1H-benzimidazol-1-yl)piperidin-1-yl]-9H-purine-8-carboxamide] was tested. Which IC50 did it give?
Answer: < 50 nM

Question: How did the IC50 turn out when `COC(=O)C1(c2ccccc2)CCN(c2ncnc3c2nc(-c2cnn(C)c2)n3C)CC1` [Compound 274, methyl 1-[9-methyl-8-(1-methyl-1H-pyrazol-4-yl)-9H-purin-6-yl]-4-phenylpiperidine-4-carboxylate] was run?
Answer: 500 to 1500 nM

Question: `Cn1c(C(=O)NCC2CC2)nc2c(N3CCC(C#N)(c4ccccc4)CC3)ncnc21` [Compound 275, 6-(4-cyano-4-phenylpiperidin-1-yl)-N-(cyclopropylmethyl)-9-methyl-9H-purine-8-carboxamide] was tested. Which IC50 did it give?
Answer: 50 to 250 nM
